According to patent US6083941A, “Inhibition of NMDA receptor activity by pregnenolone sulfate derivatives” (Trustees of Boston University, priority 1998, dated 2000):
Counter-ions that a name gives are not always drawn.

Experiments:
[1] = system: NMDA-induced cell death in primary neuronal cultures of rat hippocampal formation; experiment: Trypan blue exclusion, NMDA-induced cell death (excitotoxicity) in primary hippocampal cultures; assay type: cell-based
Description: Trypan blue exclusion was used to evaluate the ability of derivatives of pregnenolone sulfate to inhibit NMDA-induced cell death in primary neuronal cultures of rat hippocampal formation.
Mixed neuronal and glial cultures of hippocampal tissue were derived from fetal rats on day 18 of embryonic development and were maintained in culture for 16 to 24 days (Brewer, G. J., Brain Res., 494: 65-74 (1989)). Care for the animals used in this study was in accordance with institutional guidelines. Hippocampal tissue from Sprague-Dawley rat pups was collected immediately following removal from dams sacrificed with CO2 on embryonic day 18. Cells were dissociated by trituration in Ca^2 +/Mg^2 + free Hank's basic salt solution supplemented with 4.2 mM bicarbonate, 1 mM sodium pyruvate, 20 mM HEPES, 3 mg/ml BSA, and pelleted by centrifugation (900 rpm, 3 min). The resulting pellet was suspended in DMEM supplemented with 2.4 mg/ml BSA, 26.5 mM sodium bicarbonate, 1 mM sodium pyruvate, 20 mM HEPES, 10% FBS, 100 units/ml penicillin, 100 μg/ml streptomycin, and a modification of Brewers B16 defined components (with […] vitamin B12 and without catalase, glutathione, and superoxide dismutase) (Pike, C. J., et al., Neurosci. 13:1676-87 (1993)) and plated onto poly-L-lysine coated 24 well culture dishes (Nunclon) at a density of 15,000 cells/cm^2 and were maintained in a humidified incubator in 5% CO2 /95% air at 37° C. After 5 days in vitro, nonneuronal cell division was inhibited by exposure to 2×10^-6 M cytosine arabinoside for 48 hrs. Cells were subsequently maintained in medium identical to that used for platting without BSA or FBS.
The number of living neurons was determined by assessing the ability of cells to exclude trypan blue 16 hrs. after the addition of drug solutions to the medium of individual culture wells (Dawson, V. L., et al., Proc. Natl. Acad. Sci. USA, 88:6368-6371 (1991)). Drugs were introduced to cultures in 100 μl of conditioned media, collected from experimental cultures just prior to treatment, to a final volume of 0.5 ml. NMDA was dissolved in DMEM at concentrations of 0-5 mM so that addition of 10 μl yielded final concentrations of 0-100 μM. MK-801, a positive control, was dissolved in DMEM at a concentration of 1 mM so that addition of 5 μl yielded a final concentration of 10 μM. Control cultures were exposed only to an equivalent volume of DMEM, and concentration of DMSO (0.5%). The concentrations of the pregnenolone sulfate derivatives were as follows: 10-100 μM 5β3αS, 100 μM 5β3α hemisuccinate and 200 μM 17β-estradiol hemisuccinate.
After exposure to drugs, the medium was replaced by 0.1 M sodium phosphate buffer/0.4% trypan blue. Cell death was assessed by counting the number of trypan blue positive and negative neurons in five high power fields per culture well with an inverted phase contrast microscope using both bright field and phase settings. Cell death is expressed as the ratio of the number of trypan blue positive to total number of cells counted in each well×100 (percent cell death).

NMDA receptor = experiment: Electrophysiology, NMDA response in rat hippocampal neurons; assay type: cell-based; conditions: FIG. 4; average of 6 experiments
Procedure: Experiments were carried out in 35-mm tissue culture dishes on the stage of an inverted phase contrast microscope. Whole cell currents were recorded by the whole cell variant of the patch clamp technique (Hamill, O. P., et al., Pfagers Arch. 891:85-100 (1981)). Patch electrodes had tip openings of about […] and resistances of 3-8 M.OMEGA. using an intracellular solution comprised of the following (in mM): 140 CsCl, 11 EGTA, and 10 HEPES (pH adjusted to 7.2 with CsOH). In experiments in which a high concentration of glycine was used, the intracellular solution was replaced with a low chloride (10 mM) pipette solution. This solution contained the following (in mM): 140 potassium gluconate, 10 KCl, 8 sodium gluconate, 11 EGTA, and 10 HEPES (pH adjusted to 7.2 with KOH). […]
The degree of modulation of the amino acid response by steroid, the percentage change, is expressed as [(I'/I)-1]×100%, where I is the average of control responses obtained from the same cell before application and after washout of steroid and I' is the agonist-induced current in the presence of steroid. Throughout, results are expressed as mean±S.E.; statistical comparison of groups was carried out using Student's t test.
The electrophysiology of additional pregnenolone derivatives were analyzed as described in Example 1. […]

Compound	inhibition of the cell death induced by chronic NMDA ([1]; 100 μM 5β3α hemisuccinate) [%]	inhibition of the cell death produced by short term exposure to NMDA ([1]; 100 μM 5β3α hemisuccinate) [%]	% inhibition of NMDA response in rat hippocampal cells (NMDA receptor)	protection against chronic NMDA-induced cell death ([1]; 10-100 μM 5β3αS, FIG. 5)	protection against short term NMDA excitotoxicity ([1]; 10-100 μM 5β3αS, FIG. 5)	block of cell death due to NMDA ([1]; steroid present during the exposure only)	block of cell death due to NMDA ([1]; steroid present only after the exposure)
CC(=O)[C@H]1CC[C@H]2[C@@H]3CC[C@@H]4C[C@H](OC(=O)CCC(=O)O)CC[C@]4(C)[C@H]3CC[C@]12C [5β3αHS, 3α-hydroxy-5β-pregnan-20-one hemisuccinate]	50	46	approximately 20%	–	–	–	–
CC(=O)[C@H]1CC[C@H]2[C@@H]3CC[C@@H]4C[C@H](OS(=O)(=O)O)CC[C@]4(C)[C@H]3CC[C@]12C [5β3αS, 3α-hydroxy-5β-pregnan-20-one sulfate]	–	–	–	ineffective against chronic NMDA-induced cell death	protects against short term NMDA excitotoxicity	completely blocked the cell death	considerably less effective
